According to patent publication US12139458B2, “(2,5-dioxopyrrolidin-1-yl)(phenyl)-acetamide derivatives and their use in the treatment of neurological diseases” (UNIWERSYTET JAGIELLONSKI, priority 2019, dated 2024):

Legend:
[1] = system: male Swiss albino mice (CD-1); assay: Maximal electroshock seizure test (MES); type: in vivo; details: 0.5 h, mice; for ED50 / responders at 100 mg/kg: Mus musculus, ip; for responders at 100 mg/kg / MES: number of mice protected/number of mice tested: screening, 100 mg/kg i.p.; for responders at 100 mg/kg: read-out: MES: number of mice protected/number of mice tested (converted)
Procedure: (§1) The male Swiss albino mice (CD-1) weighing 18-26 g were used. All procedures were carried out in accordance with applicable Polish and international guidelines on the ethics of animal testing, after obtaining appropriate institutional approval. The substances were administered intraperitoneally (i.p.), in 1% aqueous solution of Tween, as single injections with a volume of 10 ml/kg, 30 minutes before the given test. Screening was performed on groups consisted of 4 mice. The average effective dose (ED50) in given test and toxic dose in the rotarod test (TD50) was estimated based on the results obtained in 3-4 groups of animals consisting of 6 mice. All tests were carried out based on the procedures described in the specialist literature.
In the MES test, the seizures were induced by an electrical stimulus lasting of 0.2 s duration, 500 V voltage and 25 mA intensity. The electrical stimuli was generated using an electric shock generator (Rodent shocker, Type 221, Hugo Sachs Elektronik, Germany) and delivered to the animal using electrodes placed on the auricles. The study was conducted 30 minutes after intraperitoneal administration of the compounds at various doses. During the experiment, the number of animals that experienced a seizure episode in the form of tonic extension of the hind limbs was counted (Kamiński, K.; Rapacz, A.; Łuszczki, J. J.; Latacz, G.; Obniska, J.; Kieć-Kononowicz, K.; Filipek, B. Bioorg. Med. Chem. 2015, 23, 2548-2561; Castel-Branco, M. M.; Alves, G. L.; Figueiredo, I. V.; Falcão, A. C.; Caramona, M. M. Methods Find. Exp. Clin. Pharmacol. 2009, 31, 101-106).
(§2) To perform a statistical evaluation of the results, one-way ANOVA variance analysis and Dunnett's post hoc test (multiple comparison test) were used. The value at the significance level p<0.05 was considered statistically significant.

[2] = system: male Swiss albino mice (CD-1); assay: Psychomotor seizure test 6 Hz (32 mA); type: in vivo; details: 0.5 h, mice; for ED50 / responders at 100 mg/kg: Mus musculus, ip; for 6 Hz (32 mA): number of mice protected/number of mice tested / responders at 100 mg/kg: screening, 100 mg/kg i.p.; for responders at 100 mg/kg: read-out: 6 Hz (32 mA): number of mice protected/number of mice tested (converted)
Procedure: as §1
In the 6 Hz test, seizures were induced by an electric stimulus of 32 mA and/or 44 mA and a frequency of 6 pulses per second. An electrical pulse was generated using an electric shock generator (ECT Unit 57800; Ugo Basile, Gemonio, Italy) and delivered to the animal using ocular electrodes. Before starting the test, the eye surface was gently moistened with a solution of local anesthetic (1% lidocaine solution). The study was conducted 30 minutes after intraperitoneal administration of the compounds at various doses. An electrical pulse was delivered continuously for a period of 3 seconds, followed by observation of the animal for a period of 10 seconds. During this time, immobility or stun associated with rearing, forelimb clonus, twitching of the vibrissae and Straub's tail were observed. These symptoms persist throughout the observation period, indicating the occurrence of psychomotor seizures in mice. Mice resuming normal behavior within 10 s after stimulation were considered as protected (Barton, M. E.; Klein, B. D.; Wolf, H. H.; White, H. S. Epilepsy Res. 2001, 47, 217-227; Wojda, E.; Wlaź, A.; Patsalos, P. N.; Łuszczki, J. J. Epilepsy Res. 2009, 86, 163-174).
as §2

[3] = system: male Swiss albino mice (CD-1); assay: Psychomotor seizure test 6 Hz (44 mA); type: in vivo; details: screening, 100 mg/kg i.p., 0.5 h, mice
Procedure: (§3) All procedures were carried out in accordance with applicable Polish and international guidelines on the ethics of animal testing, after obtaining appropriate institutional approval. The substances were administered intraperitoneally (i.p.), in 1% aqueous solution of Tween, as single injections with a volume of 10 ml/kg, 30 minutes before the given test. Screening was performed on groups consisted of 4 mice. […] All tests were carried out based on the procedures described in the specialist literature.
In the 6 Hz test, seizures were induced by an electric stimulus of 32 mA and/or 44 mA and a frequency of 6 pulses per second. […] Before starting the test, the eye surface was gently moistened with a solution of local anesthetic (1% lidocaine solution). The study was conducted 30 minutes after intraperitoneal administration of the compounds at various doses. An electrical pulse was delivered continuously for a period of 3 seconds, followed by observation of the animal for a period of 10 seconds. During this time, immobility or stun associated with rearing, forelimb clonus, twitching of the vibrissae and Straub's tail were observed. These symptoms persist throughout the observation period, indicating the occurrence of psychomotor seizures in mice.
as §2

[4] = system: male Swiss albino mice (CD-1); assay: Subcutaneous pentylenetetrazole seizure test (scPTZ); type: in vivo; details: 0.5 h, mice; for ED50 / responders at 100 mg/kg: Mus musculus, ip; for scPTZ: number of mice protected/number of mice tested / responders at 100 mg/kg: screening, 100 mg/kg i.p.; for responders at 100 mg/kg: read-out: scPTZ: number of mice protected/number of mice tested (converted)
Procedure: as §1
In the scPTZ test, seizures were induced by subcutaneous administration of pentylenetetrazole (PTZ) at a dose of 100 mg/kg. This caused clonic seizures with accompanying loss of the righting reflex. Test compounds were administered 30 minutes before the experiment. After PTZ administration, the animals were placed individually in transparent containers and observed for a period of 30 minutes for the occurrence of clonic seizures. During this time, the latency of the first onset of clonic seizures, defined as clonus of the whole body lasting at least 3 seconds with loss of the righting reflex and the number of seizure episodes during the test were noted and compared with control group. The absence of clonic convulsions within the observed time period was interpreted as the compound's ability to protect against PTZ-induced seizures (Ferreri, G.; Chimirri, A.; Russo, E.; Gitto, R.; Gareri, P.; De Sarro, A.; De Sarro, G. Pharmacol. Biochem. Behav. 2004, 77, 85-94; Łączkowski, K.; Sałat, K.; Misiura, K.; Podkowa, A.; Malikowska, N. J. Enzyme Inhib. Med. Chem. 2016, 31, 1576-82).
as §2

[5] = Rotarod test (motor coordination); type: in vivo; details: male, Swiss albino (CD-1), mouse, in vivo, ip, mice
Procedure: as §3
Mice were trained the day before the actual experiment. They were placed individually on a 2 cm diameter rod rotating at 10 revolutions per minute (rpm). During each training session, the animals remained on the rod for 3 minutes. The experiment was carried out 30 minutes after administration of the compounds. Motor coordination was tested at the speed of the rotating bar: 10 rpm during 60 seconds. Motor impairments were defined as the inability to remain on the rotating rod for 1 min.
as §2

Compound	ED50 [1]	responders at 100 mg/kg [1]	ED50 [2]	6 Hz (32 mA): number of mice protected/number of mice tested [2]	6 Hz (44 mA): number of mice protected/number of mice tested [3]	ED50 [4]	scPTZ: number of mice protected/number of mice tested [4]	TD50 at 0.5 h [5]	melting point	responders at 100 mg/kg [2]	MES: number of mice protected/number of mice tested [1]	responders at 100 mg/kg [4]
O=C(C(c1ccccc1)N1C(=O)CCC1=O)N1CCN(c2ccccc2)CC1 (racemic) [Compound 2, 1-(2-Oxo-1-phenyl-2-(4-phenylpiperazin-1-yl)ethyl)pyrrolidine-2,5-dione]	91.1 mg/kg	100%	83.5 mg/kg	¾	2/4	100 mg/kg	¾	> 300 mg/kg	156.7 to 157.4 °C	–	–	–
O=C(C(c1ccccc1)N1C(=O)CCC1=O)N1CCN(c2cccc(Cl)c2)CC1 (racemic) [Compound 3, 1-(2-(4-(3-Chlorophenyl)piperazin-1-yl)-2-oxo-1-phenylethyl)pyrrolidine-2,5-dione]	36.9 mg/kg	100%	39.5 mg/kg	–	¾	52.6 mg/kg	¾	144 mg/kg	128.1 to 129 °C	100%	–	–
O=C(C(c1ccccc1)N1C(=O)CCC1=O)N1CCN(c2cc(Cl)cc(Cl)c2)CC1 (racemic) [Compound 4, 1-(2-(4-(3,5-Dichlorophenyl)piperazin-1-yl)-2-oxo-1-phenylethyl)pyrrolidine-2,5-dione]	68.5 mg/kg	–	17.7 mg/kg	–	–	> 100 mg/kg	¾	> 300 mg/kg	163.8 to 165.2 °C	100%	¾	–
Cc1cccc(N2CCN(C(=O)C(c3ccccc3)N3C(=O)CCC3=O)CC2)c1 (racemic) [Compound 5, 1-(2-Oxo-1-phenyl-2-(4-(m-tolyl)piperazin-1-yl)ethyl)pyrrolidine-2,5-dione]	37.2 mg/kg	–	35.5 mg/kg	–	2/4	57.6 mg/kg	¾	171 mg/kg	188.7 to 192.1 °C	100%	¾	–
O=C(C(c1ccc(F)cc1)N1C(=O)CCC1=O)N1CCN(c2cccc(C(F)(F)F)c2)CC1 (racemic) [Compound 14, 1-(1-(4-Fluorophenyl)-2-oxo-2-(4-(3-(trifluoromethyl)phenyl)piperazin-1-yl)ethyl)pyrrolidine-2,5-dione]	56.4 mg/kg	100%	48.3 mg/kg	¾	–	< 100 mg/kg	–	> 300 mg/kg	88.8 to 90.7 °C	–	–	50%
O=C([C@@H](c1ccccc1)N1C(=O)CCC1=O)N1CCN(c2cccc(Cl)c2)CC1 [(R)-3, (R)-1-(2-(4-(3-chlorophenyl)piperazin-1-yl)-2-oxo-1-phenylethyl)pyrrolidine-2,5-dione]	57.7 mg/kg	100%	49.3 mg/kg	–	–	78.3 mg/kg	¾	223 mg/kg	167.3 to 168.1 °C	100%	–	–
O=C([C@@H](c1ccccc1)N1C(=O)CCC1=O)N1CCN(c2cccc(OC(F)(F)F)c2)CC1 [(R)-10, (R)-1-(2-Oxo-1-phenyl-2-(4-(3-(trifluoromethoxy)phenyl)piperazin-1-yl)ethyl)pyrrolidine-2,5-dione]	22.6 mg/kg	100%	12.8 mg/kg	–	–	< 60 mg/kg	–	> 150 mg/kg	168.2 to 169.1 °C	100%	–	50%
O=C([C@H](c1ccccc1)N1C(=O)CCC1=O)N1CCN(c2cccc(C(F)(F)F)c2)CC1 [(S)-6, (S)-1-(2-Oxo-1-phenyl-2-(4-(3-(trifluoromethyl)phenyl)piperazin-1-yl)ethyl) pyrrolidine-2,5-dione]	68.5 mg/kg	–	> 130 mg/kg	–	¼	75.4 mg/kg	¾	> 300 mg/kg	–	50%	¾	–
CCN(CC)C1CC(=O)N(C(C(=O)N2CCN(c3cccc(C(F)(F)F)c3)CC2)c2ccccc2)C1=O.Cl (centres unmarked) [Compound 50, 3-(Diethylamino)-1-(2-oxo-1-phenyl-2-(4-(3-(trifluoromethyl)phenyl)piperazin-1-yl)ethyl)pyrrolidine-2,5-dione hydrochloride]	–	100%	–	–	–	–	–	–	142.2 to 143.1 °C	100%	–	50%
